How the values were obtained:
CA-MRSA (USA300-0114) = experiment: MIC against community-acquired methicillin-resistant S. aureus (CA-MRSA); type: cell-based; details: Staphylococcus aureus, 72 h
Procedure: The term “minimum inhibitory concentration (MIC)” means the lowest concentration of an antimicrobial agent that will inhibit the visible growth of a microorganism after overnight incubation. MIC values against bacteria, for example, the Gram-positive Staphylococcus aureus and Enterococcus faecalis and the Gram-negative Escherichia coli and Pseudomonas aeruginosa were determined by standard methods. See also P. A. Wayne, Methods for Dilution Antimicrobial Tests for Bacteria that Grow Aerobically; Approved Standard, Ninth Edition, 2012, CLSI Document M07-A9, Vol. 32 No. 2.
Biological testing procedures were adapted from prior work by Melander and coworkers. For all biological assays, laboratory strains of methicillin-susceptible Staphylococcus aureus MSSA (SH1000), Staphylococcus aureus CA-MRSA (USA300-0114), Staphylococcus aureus HA-MRSA (ATCC 33591), Escherichia coli (MC4100), Enterococcus faecalis (OG1RF), Acinetobacter baumannii (ATCC 17978), were grown with shaking at 37 °C overnight from freezer stocks in 5 mL of the indicated media: SH1000, OG1RF, MC4100, USA300-0114, and ATCC 17978 were grown in BDTM Mueller-Hinton broth (MHB), whereas ATCC 33591 was grown in BDTM tryptic soy broth (TSB). The inoculum were then streaked onto Mueller-Hinton agar (MHA) plates and grown overnight at 37 °C. From the plates, single colonies were selected, diluted into 50 mL of fresh media and grown overnight at 37 °C with shaking for use in the MIC assays. Optical density (OD) measurements were obtained using a SpectraMax iD3 plate reader (Molecular Devices, United States).
Compounds were serially diluted two-fold from stock solutions (1.0 mM) to yield twelve 100 μL test concentrations, wherein the starting concentration of dimethyl sulfoxide (DMSO) was 2.5%. Overnight S. aureus, E. faecalis, E. coli, A. baumannii, USA300-0114 (CA-MRSA), and ATCC 33591 (HA-MRSA) cultures were diluted to ca. 10^6 CFU/mL in MHB or TSB and regrown to mid-exponential phase, as determined by optical density recorded at 600 nm (OD600). All cultures were then diluted again to ca. 10^6 CFU/mL and 100 μL were inoculated into each well of a U-bottom 96-well plate (Corning, 351177) containing 100 μL of compound solution. Plates were incubated statically at 37 °C for 72 hours upon which wells were evaluated visually for bacterial growth. The MIC was determined as the lowest concentration of compound resulting in no bacterial growth visible to the naked eye, based on the highest value in three independent experiments. Aqueous DMSO controls were conducted as appropriate for each compound.
The prepared library of biscationic amphiphilic compounds was assessed for performance as antibacterial disinfectants by determining the minimum inhibitory concentration (MIC) for each against a panel of bacteria. The bacteria selected for the study were chosen to evaluate the broad spectrum antimicrobial performance of the QPCs, and therefore, included both Gram-positive and Gram-negative bacterial strains, including those with known antimicrobial resistance mechanisms. These bacteria include the Gram-positive strains of methicillin-susceptible Staphylococcus aureus [MSSA; SH1000], community-acquired methicillin-resistant Staphylococcus aureus [CA-MRSA; USA 300-0114], hospital-acquired methicillin-resistant Staphylococcus aureus [HA-MRSA; ATCC 33591] and the […], Escherichia coli [MC4100], Acinetobacter baumannii [ATCC 17498] and Pseudomonas aeruginosa [PAO1].

[1] = Dynamic surface tension (bubble pressure tensiometer); type: physicochemical; details: 100, 300 and 1000 ppm in deionized water, 22 °C; 10 to 10,000 ms surface age
Procedure: All samples were analyzed using a Krüss BPT Mobile bubble pressure tensiometer. Solutions of 12(2)12 and ^MeP2P-12,12 were made in concentrations of 100, 300 and 1000 ppm using deionized water. Measurements were conducted at 22+1 °C. Before each sample run, a new capillary tip was installed and the instrument was calibrated with deionized water. The dynamic surface tension (mN/m) was measured as a function of surface bubble age (30 collection points over the range of 10 to 10,000 ms).
In order to further investigate these highly analogous bis-cationic structures, a Krüss bubble pressure tensiometer was utilized to measure the dynamic surface tension of 12(2)12 and ^MeP2P-12,12.
Antimicrobial activity is expected to be affected by differences in solution behavior of amphiphilic molecules, such as the propensity to form micelles and solution dispersion rates. Structural factors such as nature of the charge and the alkyl chain length of the amphiphile have been previously reported to change the behavior of surfactants. These types of structural factors are consistent with the factors that influence the inventors' proposed mechanism of action for bacteria membrane disruption by multicationic QACs. […]

Structure (SMILES) | MIC (CA-MRSA (USA300-0114)) [µM] | dynamic surface tension (in words) [1]
CCCCCCCCCCCC[P+](C)(C)CC[P+](C)(C)CCCCCCCCCCC [^MeP2P-12,12] | 2 | behave almost identically in solution
CCCCCCCCCCCC[N+](C)(C)CC[N+](C)(C)CCCCCCCCCCCC [12(2)12, reference compound] | 2 | behave almost identically in solution

From US20260374792A1, “PHENYL-FREE BISCATIONIC QUATERNARY PHOSPHONIUM COMPOUNDS AS ANTIMICROBIAL AGENTS” (priority 2022, published 2026)
